The record followed here is patent US7868020B2, “Quinolynylmethylimidizoles as therapeutic agents” (Allergan, Inc., priority 2007, dated 2011).

The nature of test [1]: in vitro assay (not specified) of separated enantiomers. The settings on record: enantiomers separated by chiral HPLC. From the text: Compound (6) was separated by chiral HPLC: […]® OD with 85% hexane and 15% ethanol at rt. The (+)-7-(5-methyl-1H-imidazol-4-ylmethyl)-5,6,7,8-tetrahydro-quinoline (8) corresponding to the second eluting peak was active in an in vitro assay.

For a further test, the target named is T1, Alpha 2B (Homo sapiens, UniProt P18089).
T1 construct: expressed in transfected cells; host or cells: NIH-3T3
T1 sequence (P18089 1-450): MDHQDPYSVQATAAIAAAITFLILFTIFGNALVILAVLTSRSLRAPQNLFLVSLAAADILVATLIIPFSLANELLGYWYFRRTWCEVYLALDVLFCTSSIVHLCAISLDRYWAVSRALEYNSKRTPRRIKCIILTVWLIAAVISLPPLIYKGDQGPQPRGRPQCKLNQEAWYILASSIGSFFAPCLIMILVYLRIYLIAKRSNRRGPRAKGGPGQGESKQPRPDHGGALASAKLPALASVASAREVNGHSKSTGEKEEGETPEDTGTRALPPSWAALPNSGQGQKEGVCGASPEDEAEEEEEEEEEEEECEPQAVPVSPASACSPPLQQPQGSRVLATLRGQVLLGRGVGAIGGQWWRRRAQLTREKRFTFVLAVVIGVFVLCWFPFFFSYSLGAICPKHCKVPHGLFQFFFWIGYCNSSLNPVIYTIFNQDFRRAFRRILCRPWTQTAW
In words: RSAT assay, Alpha 2B receptor. It is filed as cell-based. Particulars: for EC50: RSAT, transfected NIH-3T3 cells, coexpressed Gq/i5; for Alpha 2B (IA) intrinsic activity: ratio of maximal effect to that of standard full agonist brimonidine. On the procedure:
(§1) The RSAT assay measures a receptor-mediated loss of contact inhibition that results in selective proliferation of receptor-containing cells in a mixed population of confluent cells. The increase in cell number is assessed with an appropriate transfected marker gene such as […]-galactosidase, the activity of which can be easily measured in a 96-well format. Receptors that activate the G protein, Gq, elicit this response. Alpha2 receptors, which normally couple to Gi, activate the RSAT response when coexpressed with a hybrid Gq protein that has a Gi receptor recognition domain, called Gq/i5.
(§2) NIH-3T3 cells are plated at a density of 2×10^6 cells in 15 cm dishes and maintained in Dulbecco's modified Eagle's medium supplemented with 10% calf serum. One day later, cells are cotransfected by calcium phosphate precipitation with mammalian expression plasmids encoding p-SV-β-galactosidase (5-10 μg), receptor (1-2 μg) and G protein (1-2 μg). 40 μg salmon sperm DNA may also be included in the transfection mixture. Fresh media is added on the following day and 1-2 days later, cells are harvested and frozen in 50 assay aliquots. Cells are thawed and 100 μl added to 100 μl aliquots of various concentrations of drugs in triplicate in 96-well dishes. Incubations continue 72-96 hr at 37° C. After washing with phosphate-buffered saline, β-galactosidase enzyme activity is determined by adding 200 μl of the chromogenic substrate (consisting of 3.5 mM o-nitrophenyl-β-D-galactopyranoside and 0.5% nonidet P-40 in phosphate buffered saline), incubating overnight at 30° C. and measuring optical density at 420 nm. The absorbance is a measure of enzyme activity, which depends on cell number and reflects a receptor-mediated cell proliferation. The efficacy or intrinsic activity is calculated as a ratio of the maximal effect of the drug to the maximal effect of a standard full agonist for each receptor subtype. Brimonidine, also called UK14304, the chemical structure of which is shown below, is used as the standard agonist for the alpha2A, alpha2B and alpha2C receptors. The EC50 is the concentration at which the drug effect is half of its maximal effect.
(§3) The results of the RSAT assay with several exemplary compounds of the invention are disclosed in Table 1 above together with the chemical formulas of these exemplary compounds. EC50 values are nanomolar. NA stands for “not active” at concentrations less than 10 micromolar. IA stands for “intrinsic activity.”

Another test concerns the target T2, Alpha 1A (Homo sapiens, UniProt P35348).
T2 construct: expressed in transfected cells; host or cells: NIH-3T3
T2 sequence (P35348 1-466): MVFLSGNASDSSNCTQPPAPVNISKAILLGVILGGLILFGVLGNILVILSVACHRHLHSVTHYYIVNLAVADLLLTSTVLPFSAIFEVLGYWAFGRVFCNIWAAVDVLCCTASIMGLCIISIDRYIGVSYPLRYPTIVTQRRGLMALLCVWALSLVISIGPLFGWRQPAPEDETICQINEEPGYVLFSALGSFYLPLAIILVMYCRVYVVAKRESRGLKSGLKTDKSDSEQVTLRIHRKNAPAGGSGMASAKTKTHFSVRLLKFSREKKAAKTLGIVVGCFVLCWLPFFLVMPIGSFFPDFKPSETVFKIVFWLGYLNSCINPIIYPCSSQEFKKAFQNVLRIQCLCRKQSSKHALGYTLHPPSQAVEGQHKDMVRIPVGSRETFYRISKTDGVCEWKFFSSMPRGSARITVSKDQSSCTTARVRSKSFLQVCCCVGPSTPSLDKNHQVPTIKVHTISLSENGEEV
The experiment in a line: RSAT assay, Alpha 1A receptor. It is filed as cell-based. The settings on record: for EC50: RSAT, transfected NIH-3T3 cells; for Alpha 1A (IA) intrinsic activity: ratio of maximal effect of drug to maximal effect of standard full agonist. The procedure: as §1, §2, §3

A further test concerns the target T3, Alpha 2C (Homo sapiens, UniProt P18825).
T3 construct: expressed in transfected cells; host or cells: NIH-3T3
T3 sequence (P18825 1-462): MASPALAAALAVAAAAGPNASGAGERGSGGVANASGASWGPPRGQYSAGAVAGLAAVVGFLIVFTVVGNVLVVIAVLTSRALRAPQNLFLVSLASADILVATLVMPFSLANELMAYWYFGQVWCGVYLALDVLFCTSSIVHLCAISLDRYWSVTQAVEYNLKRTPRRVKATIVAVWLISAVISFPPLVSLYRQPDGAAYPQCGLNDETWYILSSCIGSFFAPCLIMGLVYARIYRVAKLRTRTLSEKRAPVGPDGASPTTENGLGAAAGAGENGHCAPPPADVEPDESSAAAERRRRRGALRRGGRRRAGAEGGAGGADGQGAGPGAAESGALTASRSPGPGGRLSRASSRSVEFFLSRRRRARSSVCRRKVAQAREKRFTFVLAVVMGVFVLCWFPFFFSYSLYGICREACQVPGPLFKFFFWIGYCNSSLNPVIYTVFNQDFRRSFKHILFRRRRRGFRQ
In words: RSAT assay, Alpha 2C receptor. It is filed as cell-based. Particulars: for EC50: RSAT, transfected NIH-3T3 cells, coexpressed Gq/i5; for Alpha 2C (IA) intrinsic activity: ratio of maximal effect to that of standard full agonist brimonidine. On the procedure: as §1, §2, §3

The next test deals with T4, Alpha 2A (Homo sapiens, UniProt P08913).
T4 construct: expressed in transfected cells; host or cells: NIH-3T3
T4 sequence (P08913 1-465): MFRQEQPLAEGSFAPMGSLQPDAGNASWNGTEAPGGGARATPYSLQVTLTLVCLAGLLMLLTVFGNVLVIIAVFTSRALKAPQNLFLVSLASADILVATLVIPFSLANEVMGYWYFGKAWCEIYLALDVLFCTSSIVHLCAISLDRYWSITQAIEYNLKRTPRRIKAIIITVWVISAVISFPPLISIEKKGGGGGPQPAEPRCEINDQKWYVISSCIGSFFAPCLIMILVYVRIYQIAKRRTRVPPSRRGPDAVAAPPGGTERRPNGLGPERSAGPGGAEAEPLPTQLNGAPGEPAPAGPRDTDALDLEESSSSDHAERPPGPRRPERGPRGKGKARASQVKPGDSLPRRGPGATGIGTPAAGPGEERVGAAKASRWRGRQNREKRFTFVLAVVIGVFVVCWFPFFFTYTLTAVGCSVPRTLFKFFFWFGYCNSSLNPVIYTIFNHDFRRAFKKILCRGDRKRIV
The experiment in a line: RSAT assay, Alpha 2A receptor. In kind it is cell-based. The settings on record: transfected NIH-3T3 cells, coexpressed Gq/i5. The procedure: as §1
NIH-3T3 cells are plated at a density of 2×10^6 cells in 15 cm dishes and maintained in Dulbecco's modified Eagle's medium supplemented with 10% calf serum. […] After washing with phosphate-buffered saline, β-galactosidase enzyme activity is determined by adding 200 μl of the chromogenic substrate (consisting of 3.5 mM o-nitrophenyl-β-D-galactopyranoside and 0.5% nonidet P-40 in phosphate buffered saline), incubating overnight at 30° C. and measuring optical density at 420 nm. The absorbance is a measure of enzyme activity, which depends on cell number and reflects a receptor-mediated cell proliferation. The efficacy or intrinsic activity is calculated as a ratio of the maximal effect of the drug to the maximal effect of a standard full agonist for each receptor subtype. […]

As to `Cc1[nH]cnc1CC1CCc2cccnc2C1` (single isomer, unassigned; (-)) [Compound 7, (−)-7-(5-methyl-1H-imidazol-4-ylmethyl)-5,6,7,8-tetrahydro-quinoline], the “activity in an in vitro assay” value in test [1] is “inactive”.
As to `Cc1[nH]cnc1CC1CCc2cccnc2C1` (stereo not shown) [drawing 16], at Alpha 2B, the response was half-maximal at 37 nM (EC50) and the “Alpha 2B (IA) intrinsic activity” value stood at 0.7. For the same molecule, at Alpha 1A, a half-maximal response (EC50) required 876 nM and the “Alpha 1A (IA) intrinsic activity” value stood at 0.66. Moreover, at Alpha 2C, the EC50 (in general, the concentration that produces a half-maximal response) amounted to 366 nM and the “Alpha 2C (IA) intrinsic activity” value is reported as 0.47. For the same molecule, at Alpha 2A, the EC50 is more than 10000 nM.
Take `Cc1[nH]cnc1CC1CCc2cccnc2C1` (single isomer, unassigned; (+)) [Compound 8, (+)-7-(5-methyl-1H-imidazol-4-ylmethyl)-5,6,7,8-tetrahydro-quinoline]: the “activity in an in vitro assay” value in test [1] was “active”.
Consider `Cc1[nH]cnc1CC1CCc2cccnc2C1` (stereo not shown) [drawing 15], for which the EC50 at Alpha 2B is 57 nM; on Alpha 1A, 3340 nM; on Alpha 2C, 207 nM; at Alpha 2A it was more than 10000 nM. Besides, the “Alpha 2B (IA) intrinsic activity” value at Alpha 2B came to 0.32. In addition, on Alpha 1A, the “Alpha 1A (IA) intrinsic activity” value came to 0.66. The “Alpha 2C (IA) intrinsic activity” value on Alpha 2C was 0.63.
